What was measured:
[1] = tested on: Swiss mice; assay: single-dose intraperitoneal toxicity in mice; details: i.p. single dose; 236 (Cl) 800 mcg/Kg, 278 (Ac) 4.2 mg/Kg, 320 (Ac) 4.8 mg/Kg, respectively
[2] = tested on: human lymphocytes; assay: in vitro non-specific lymphoproliferative response (RLP-I) to PHA, human lymphocyte cultures; format: cell-based; details: for RLP-I B < A, number of witness models / RLP-I B < A, percentage of witness models / RLP-I B > A, number of witness models / RLP-I B > A, percentage of witness models: Table V, PHA + BRM-BLAS (B) versus PHA (A); for number of cases with RLP-I B > A in 33-50% of the witness models / number of cases with RLP-I B > A in 67% of the witness models / number of cases with RLP-I B > A in 100% of the witness models / percentage of cases with RLP-I B > A in 33-50% of the witness models / percentage of cases with RLP-I B > A in 67% of the witness models / percentage of cases with RLP-I B > A in 100% of the witness models: Table VI, intragroup individual analysis
Procedure: The "in vitro" lymphocyte response has been assessed in samples of circulating and peripheral venous blood from asymptomatic blood donor adults of both sexes. In general, the lymphocyte cultures include in each case six experimental models called witnesses, and incorporate progressive doses between 0.25-6.0 units (20-500 ng) of the BRM-BLAS compounds and PHA. The RLP-I of each one has been morphologically determined and is expressed in absolute values of lymphoblasts/10,000.
Systematically, in all the cases it has been tabulated the RLP-I to the PHA, basal, of the PHA models; to the PHA+BRM-BLAS, of the "witness" models and the maximum individual response of the witness models (RMC), in each case.

[3] = tested on: circulating peripheral blood lymphocytes; assay: in vivo lymphocyte kinetics / response in asymptomatic rabbits; set-up: species or system New Zealand's albino, giant rabbits
Text: (§1) The pharmacodynamic study to assess the leuko-lymphocyte kinetics has been carried out in New Zealand's albino, giant, female, adult, asymptomatic (healthy) rabbits. The blood samples with EDTA (ethylene-diamino-tetraAcetic acid), non-coagulable, for the periodical weekly controls, have been obtained by aseptic puncture from the marginal vein of the outer ear. The count and the differential cytologic survey of the white series has been routinely performed in a "Coulter" (Coulter Cientifica, S.A., STKs model) differential analyzer, within the two hours following the extraction.
Hereinafter, there is a summary of the most significant results of the preclinical protocols which include different experimental conditions, different BRM-BLAS products and doses which vary in vary of their concentration of the product, frequency and number. […]
This study comprises three concatenated experimental situations. The first one is focused on the vicissitudes of the leuko-lymphocyte kinetics occurred during a pause, "first" moment, that takes place months after several doses, mainly of BRM-BLAS 236 (Cl) compounds and includes 30 individual assessments (6 of the group) days 0 to 39. The second "second" moment, is centered on the successive changes occurred after the administration on the 39th day of an intravenous dose of 8 u/Kg (0.6 mcg/Kg) of the BRM-BLAS 278 (Ac) compounds and includes a total of 25 individual assessments (5 of the group), days 43rd to 68th. The third one, moments "third" to "seventh", analyzes the changes induced after the intravenous administration on the 68th day of 22 u/Kg (1.8 mcg/Kg) of BRM-BLAS 320 (Ac) compounds and includes […] (6 of the group×5 times), days 75th to 287th of the study. The assessment prior to the last dose, the lymphocyte average of which is the lowest of the group during the study, has been selected as the common baseline (100%) for reference of the comparative analysis between the assessments.

[4] = tested on: circulating peripheral blood leukocytes; assay: in vivo leukocyte kinetics / response in asymptomatic rabbits; set-up: species or system New Zealand's albino, giant rabbits
Text: as §1
Hereinafter, there is a summary of the most significant results of the preclinical protocols which include different experimental conditions, different BRM-BLAS products and doses which vary in vary of their concentration of the product, frequency and number.
The leuko-lymphocyte mean values of the group run parallelly during the study, in general above the respective basal values before the treatment to which they return in the last two assessments. They reach the higher ones 7, 16 and 20 days after the first, second and third dose, FIG. 12, FIG. 13 and Table VIII (assessments: 3, 8 and 13).
A total number of 225 individual assessments and 45 of the group assessments have been performed, grouped in four evolutive periods moments. The "first" one includes the 40 individual assessments (8 of the group) after the two first doses, days 0 to 43rd; the "second", the 85 (17 of the group) after the third, fourth and fifth doses, days 46th to 147th; the "third", the first 50 (10 of the group) after the sixth, days 153rd to 213th, and the "fourth", the last 50 (10 of the group), days 220th to 282nd, respectively. The assessment of the group prior to the third dose (43rd day), the lymphocyte mean of which has been the lowest during the survey, has been taken as the natural reference baseline for the comparative analysis of punctual and grouped data.
This trail is subsequent to the protocol previously described and corresponds to the "fifth" moment of the global study, FIG. 14 and FIG. 15.
After the subcutaneous administration of a dose of 30 u/Kg (2.1 mcg/Kg) of the BRM-BLAS 278 (Cl) compounds 137 days after the sixth dose of the BRM-BLAS 320 (Ac) compounds, in the presence of high figures of the lymphocyte mean of the group, at the "fourth" moment, such figures were specifically exceeded by the 4th and 5th punctual weekly assessments of the "fifth" moment, 24th (184%) and 31st (180%) days, respectively, FIG. 14. Globally, 28% of the assessment exceed basal values by one or two standard deviations; 57% in three, and the difference is statistically in all of them. The resulting mean of the data gathered for the "fifth" moment with a 158% of the basal values, exceed those of the four previous moments, and the difference is statistically significant compared with those of the "first", "second" and "third", and exceeds that of the "first" in more than one standard deviation, FIG. 15 and (Table IX). […]

[5] = tested on: patients with cancer; details: patients with favourable prognosis factors; cited from earlier work
[6] = three i.v. doses 5 U/Kg (300 ng/Kg) every 21 days, assessment 8, 37th day
[7] = three i.v. doses 5 U/Kg every 21 days
[8] = progressive i.v. doses, "second" moment
[9] = progressive i.v. doses, grouped results
[10] = single i.v. high dose 22 u/Kg (1.8 mcg/Kg)

With `NC1(C[n+]2ccccc2)CC(C(=O)O)NC1=O` (stereo not shown) [BRM-BLAS 236 (Cl), 4-ammonium-4-(1-pyridiniomethyl) pyroglutamic acid dichloride] the “tolerance / toxicity, single dose” value [1] was “perfectly tolerated without evidences of toxicity”, the “RLP-I B < A, number of witness models” value [2] was 20 Num and the “RLP-I B < A, percentage of witness models” value [2] was 30%. The “RLP-I B > A, number of witness models” value [2] was 46 Num, the “RLP-I B > A, percentage of witness models” value [2] was 70% and the “number of cases with RLP-I B > A in 33-50% of the witness models” value [2] was 11 Num. The “number of cases with RLP-I B > A in 67% of the witness models” value [2] was 9 Num, the “number of cases with RLP-I B > A in 100% of the witness models” value [2] was 2 Num and the “percentage of cases with RLP-I B > A in 33-50% of the witness models” value [2] was 100%. The “percentage of cases with RLP-I B > A in 67% of the witness models” value [2] was 82%, the “percentage of cases with RLP-I B > A in 100% of the witness models” value [2] was 18% and the “highest lymphocyte mean value versus basal” value [3, 6] was 157%. The “assessments with lymphocyte mean above basal by more than three standard deviations” value [3, 7] was 10%, the “assessments with lymphocyte mean above basal by more than two standard deviations” value [3, 7] was 20% and the “assessments with lymphocyte mean above basal over the standard deviation” value [3, 7] was 75%. The “assessments with statistically significant difference of lymphocytes versus basal” value [3, 7] was 35%, the “highest leukocyte mean value versus basal” value [4, 6] was 169% and the “assessments with leukocyte mean above basal by more than three standard deviations” value [4, 7] was 5%. The “assessments with leukocyte mean above basal by more than two standard deviations” value [4, 7] was 20%, the “assessments with leukocyte mean above basal over the standard deviation” value [4, 7] was 55% and the “assessments with statistically significant difference of leukocytes versus basal” value [4, 7] was 70%. The “leukocyte response” value [4, 7] was “increase in the number of leukocytes which affect granulocytes as well as lymphocytes in the same way”, the “time to higher leuko-lymphocyte mean values after first dose” value ([4]; three i.v. doses 5 U/Kg every 21 days, first dose) was 7 days and the “leuko-lymphocyte mean of "first" period versus "fourth" period and basal” value ([4]; three i.v. doses 5 U/Kg every 21 days, grouped results) was “practically by two standard deviations”. The “time to higher leuko-lymphocyte mean values after second dose” value ([4]; three i.v. doses 5 U/Kg every 21 days, second dose) was 16 days and the “time to higher leuko-lymphocyte mean values after third dose” value ([4]; three i.v. doses 5 U/Kg every 21 days, third dose) was 20 days.
For `CC(=O)NC1(C[n+]2ccccc2)CC(C(=O)O)N(C(C)=O)C1=O` (stereo not shown) [BRM-BLAS 320 (Ac), 1-acetyl-4-acetylamino-4-(1-pyridiniomethyl) pyroglutamic acid acetate], the “tolerance / toxicity, single dose” value [1] was “perfectly tolerated without evidences of toxicity”, the “RLP-I B < A, number of witness models” value [2] was 17 Num and the “RLP-I B < A, percentage of witness models” value [2] was 21%. The “RLP-I B > A, number of witness models” value [2] was 65 Num, the “RLP-I B > A, percentage of witness models” value [2] was 70% and the “number of cases with RLP-I B > A in 33-50% of the witness models” value [2] was 14 Num. For the same compound, the “number of cases with RLP-I B > A in 67% of the witness models” value [2] was 9 Num, the “number of cases with RLP-I B > A in 100% of the witness models” value [2] was 5 Num and the “percentage of cases with RLP-I B > A in 33-50% of the witness models” value [2] was 100%. The “percentage of cases with RLP-I B > A in 67% of the witness models” value [2] was 64%, the “percentage of cases with RLP-I B > A in 100% of the witness models” value [2] was 36% and the “animals with individual lymphocyte mean "fourth" versus "first" moment higher by three standard deviations” value ([3]; progressive i.v. doses) was 60%. The “animals with individual lymphocyte mean "fourth" versus "first" moment higher by two standard deviations” value ([3]; progressive i.v. doses) was 40%, the “lymphocyte response” value ([3]; progressive i.v. doses 5-30 units/Kg (0.4-2.4 mcg/Kg)) was “selective and significant increase in the number of lymphocytes that starts after the third dose and reaches its maximum level after the sixth” and the “assessments with lymphocyte mean exceeding one standard deviation, "second" moment” value [3, 8] was 41%. The “assessments with statistically significant lymphocyte difference, "second" moment” value [3, 8] was 43%, the “highest average lymphocyte value versus basal” value ([3]; progressive i.v. doses, day 241st of the study, "fourth" moment) was 178% and the “assessments exceeding mean lymphocyte basal values by more than one, two or three standard deviations, "third" moment” value ([3]; progressive i.v. doses, days 153rd to 213th) was 80%. The “assessments exceeding mean lymphocyte basal values by more than one, two or three standard deviations, "fourth" moment” value ([3]; progressive i.v. doses, days 220th to 282nd) was 100%, the “grouped lymphocyte mean versus baseline, "first" period” value [3, 9] was 110% and the “grouped lymphocyte mean versus baseline, "fourth" period” value [3, 9] was 152%. For the same compound, the “grouped lymphocyte mean versus baseline, "second" period” value [3, 9] was 120%, the “grouped lymphocyte mean versus baseline, "third" period” value [3, 9] was 131% and the “cases with individual lymphocyte mean at "seventh" exceeding "first" moment by one, two or three standard deviations” value ([3]; single i.v. high dose 22 u/Kg) was 80%. The “lymphocyte mean versus baseline from the 53rd day” value [3, 10] was “surpasses the baseline by two or three standard deviations from the 53rd day”, the “onset of lymphocyte increase after the dose” value [3, 10] was “twenty days after the high dose” and the “highest lymphocyte mean versus basal” value ([3]; single i.v. high dose 22 u/Kg (1.8 mcg/Kg), 88th and 202nd days after dose) was 212%. The “duration of statistically significant lymphocyte increase” value ([3]; single i.v. high dose 22 u/Kg (1.8 mcg/Kg), from 53rd day) was “statistically significant uninterruptedly, until the 213th day”, the “selectivity for lymphocytes versus granulocytes and monocytes” value ([3]; single i.v. high dose 22 u/Kg, FIG. 18 and FIG. 19) was “sustained and selective immunomodulating activity or effect of the BRM-BLAS 320 (Ac) compounds on subpopulations of lymphocytes without detriment to the number of granulocytes and monocytes” and the “animals with leukocyte mean at "fourth" exceeding "first" moment by two or three standard deviations” value ([4]; progressive i.v. doses) was 40%. The “assessments with leukocyte mean exceeding basal by one standard deviation” value ([4]; progressive i.v. doses) was 4.4%, the “leukocyte punctual assessments versus basal” value ([4]; progressive i.v. doses) was “the difference is never became statistically significant” and the “leukocyte mean versus basal, 227th day” value ([4]; progressive i.v. doses, 227th day) was 129%. The “leukocyte mean versus basal, 241st day” value ([4]; progressive i.v. doses, 241st day) was 136%.
For IFN-α, the “effect on tumor metastases” value [5] is listed as “can cause the regression of tumor metastases”.
